Data as given in patent publication EP0922455A1, “HIV-1 PROTEASE INHIBITORS, PROCESS FOR PRODUCING THE SAME, AND MEDICINAL COMPOSITIONS” (NISSUI PHARMACEUTICAL CO., LTD., priority 1997, dated 1998).
*1 amine or outer side, *2 acyl side, *3 side chain or, on linkers, in order; H or OH if unused. Where a SMILES comes first, the peptide text is derived from it. Where no end group is shown, it is not given here. [ ]: non-standard residue; d: D form. The star is where a group is joined. Myristoyl = CCCCCCCCCCCCCC(=O)*; Suc = O=C(CCC(=O)[*:2])[*:1]; Aoc = NCCCCCCCC(=O)O; Ahx = NCCCCCC(=O)O

Biological target: T1, HIV-1 protease (Human immunodeficiency virus type 1 group M subtype B, UniProt P03366)
Assay: not given
Parameters: β-galactosidase (fusion partner in the expressed precursor); made in house; host or cells: E. coli K12 (UT481)
Settings: Biochem. Biophys. Res. Commun. 194: 595 - 600; cited from earlier work
For Ac-TVSFNF, the inhibitory activity is given as “has inhibitory activity”.

Biological target: T1, HIV-1 protease
Assay: inhibitory activity against HIV-1 protease (cleavage of substrate Suc-Ser-Gln-Asn-Tyr-Pro-Ile-Val-Gln, HPLC / PICO-TAG analysis)
Type: biochemical
Parameters: β-galactosidase (fusion partner in the expressed precursor); made in house; host or cells: E. coli K12 (UT481)
Settings: class symbols, inhibitory effect at 500 µM or less; read-out: IC50(µM) (Inhibitory effect)
Description: (§1) Plasmid pLB550-1 for expressing a fusion protein of partial pol protein containing HIV-1 protease and β-galactosidase was transfected into E. coli K12 (UT481) [Werman, K. F. et al. J. Bacteriol, 163: 376 - 384 (1985)] by the CaCl2 method, and was enzyme-induced by isopropyl-β-D(-)-thiogalactopyranoside and was cultured for 6 hours. Thereafter, the bacteria were collected. The bacterial were treated with lysozyme and crashed with glass beads. Subsequently, the solubilized supernatant was purified by DEAE-cellulofine, SP-Toyopearl and pepstatin A agarose column chromatography, to obtain a purified HIV-1 protease.
Synthesized peptide composed of Suc-Ser-Gln-Asn-Tyr-Pro-Ile-Val-Gln as a substrate was dissolved into 50 mM MES-NaOH buffer solution (pH 5.5) so that its concentration in enzyme reaction would be 0.57 mM, 1.25 mM, 1.43 mM, 1.67 mM and 2.0 mM. Into 50 µl of these substrate solutions, 50 µl of the purified enzyme solution of HIV-1 protease, obtained in the aforementioned preparing step, was added and then enzyme reaction was carried out at 37°C for 0 , 5, 10 and 15 minutes, respectively. To these solutions, 11.1 µl of acetonitryl containing 1% TFA was added to stop the enzyme reaction. The peptides obtained by the enzyme reaction were separated by high-performance liquid chromatography. Thereafter, enzyme activity thereof was measured by means of a PICO-TAG amino acid composition analyzing device. The initial velocities at the respective concentrations of the substrate were calculated and then analysis was performed based on by Lineweaver-Burk plots. […] In the substrate, the cleavage region was between Tyr and Pro.
On the other hand, the synthesized peptide, Suc-Ser-Gln-Asn-Tyr-Pro-Ile-Val-Gln as a substrate was used to measure inhibitory activity of the peptide of the sequence number 1 against HIV-1 protease as follows: 50 µl of the enzyme solution was added to 30 µl of solution of the peptide of the sequence number 1 in which the peptide was dissolved into 50 mM of MES-NaOH buffer solution (pH 5.5) so that its final concentration would be 10, 20, 40, 100 and 200 µM, and then enzyme reaction was carried out at 37 °C for 30 minutes.
Next, the solution of the substrate, Suc-Ser-Gln-Asn-Tyr-Pro-Ile-Val-Gln was added thereto so that its final concentration would be 1 mM, and then enzyme reaction was carried out at 37 °C for 0, 5, 10 and 15 minutes. To these solutions, 11.1 µl of acetonitryl containing 1% TFA was added to stop the enzyme reaction. The peptides obtained by the enzyme reaction were separated by high-performance liquid chromatography. Thereafter, enzyme activity thereof was measured by means of a PICO-TAG amino acid composition analyzing device. […] (The relative activity is represented as a percentage relative to the enzyme activity (value: 100) in the absence of the peptide of the sequence number 2.) From this graph, IC50 was calculated and obtained, so that IC50 was 10 µM.
50 µl of the enzyme solution was added to 30 µl of the peptide of the sequence number 2 dissolved into 50 mM of MES-NaOH buffer solution so that its final concentration would be 10 µM and then enzyme reaction was carried out at 37 °C for 30 minutes. The solution of the substrate, Suc-Ser-Gln-Asn-Tyr-Pro-Ile-Val-Gln was added thereto so that its final concentration would be 0.579 1.0, 1.43, 2.0 and 2.5 mM, and then enzyme reaction was carried out at 37 °C for 0, 5, 10 and 15 minutes. To these solutions, 11.1 µl of acetonitryl containing 1% TFA was added to stop the enzyme reaction, and then analysis was performed from Lineweaver-Burk plots. […] A control experiment was carried out in the absence of the peptide of the sequence number 2, in the same way.
(§2) Concerning these 30 kinds of compounds, inhibitory effect against of HIV protease and IC50 were measured in the same way as in 2) in Example 1.
AEAMSQV [Compound 13, AEAMSQV] gave an IC50 of no less than 500 µM. For `CSCC[C@H](NC(=O)[C@H](C)NC(=O)[C@H](CCC(=O)O)NC(=O)[C@H](C)NC(=O)CCC(=O)O)C(=O)N[C@@H](CO)C(=O)N[C@@H](CCC(N)=O)C(=O)NCCCCCC(=O)O` [Compound 16, Suc-AEAMSQAhx] (Suc-AEAMSQ[Ahx]-OH), the IC50 was no less than 500 µM. In the case of `CC[C@H](C)[C@H](NC(=O)[C@@H](NC(=O)[C@H](C)NC(=O)[C@@H]1CCCN1C(=O)[C@H](CC(N)=O)NC(=O)[C@@H](NC(=O)[C@@H](NC(=O)[C@H](CCC(N)=O)NC(=O)[C@H](CO)NC(=O)[C@H](CCSC)NC(=O)[C@H](C)NC(=O)[C@H](CCC(=O)O)NC(=O)[C@H](C)N)C(C)C)[C@@H](C)O)[C@@H](C)O)C(=O)N[C@@H](CCSC)C(=O)O` [Compound 3, AEAMSQVTNPATIM], the IC50 is reported as no less than 500 µM. With `CSCC[C@H](NC(=O)[C@H](C)NC(=O)[C@H](CCC(=O)O)NC(=O)[C@H](C)N)C(=O)N[C@@H](CO)C(=O)N[C@@H](CCC(N)=O)C(=O)NCCCCCCCC(=O)O` [Compound 14, AEAMSQAoc] (H-AEAMSQ[Aoc]-OH) the IC50 was no less than 500 µM. Compound `CSCC[C@H](NC(=O)CCCCCCCN)C(=O)O` [Compound 27, N-AocM] has an IC50 of no less than 500 µM. Work on `CSCC[C@H](NC(=O)[C@H](C)NC(=O)[C@H](CCC(=O)O)NC(=O)[C@H](C)N)C(=O)O` [Compound 19, AEAM] (H-AEAM-OH) yielded an IC50 of no less than 500 µM. With “AEAMSQVANTATIM [Compound 5, AEAMSQVANTATIM]” the IC50 was no more than 500 µM. `CSCC[C@H](NC(=O)CCCCCCCN)C(=O)NCCCCCCCC(=O)NCCCCCCCC(=O)O` [Compound 29, N-AocMAocAoc] showed an IC50 of no less than 500 µM. AEAASQVTN [Compound 8, AEAASQVTN] gave an IC50 of no less than 500 µM. AEAMAQVTN [Compound 9, AEAMAQVTN] showed an IC50 of no more than 500 µM. `CSCC[C@H](NC(=O)CCCCCCCN)C(=O)NCCCCCCCC(=O)O` [Compound 28, N-AocMAoc] gave an IC50 of no less than 500 µM. Compound AEAMSQVT [Compound 12, AEAMSQVT] has an IC50 of no less than 500 µM. With VTNTATIM [Compound 22, VTNTATIM] the IC50 was no less than 500 µM. For `CC[C@H](C)[C@H](NC(=O)[C@@H](NC(=O)[C@H](C)NC(=O)[C@@H](NC(=O)[C@H](CC(N)=O)NC(=O)[C@@H](NC(=O)[C@@H](NC(=O)[C@H](CCC(N)=O)NC(=O)[C@H](CO)NC(=O)[C@H](CCSC)NC(=O)[C@H](C)NC(=O)[C@H](CCC(=O)O)NC(=O)[C@H](C)N)C(C)C)[C@@H](C)O)[C@@H](C)O)[C@@H](C)O)C(=O)N[C@@H](CCSC)C(=O)O` [Compound 4, AEAMSQVTNTATIM], the IC50 was no more than 500 µM. In the case of AAAMSQVTN [Compound 7, AAAMSQVTN], the IC50 is reported as no more than 500 µM. For `CSCC[C@H](NC(=O)[C@H](C)NC(=O)[C@H](CCC(=O)O)NC(=O)[C@H](C)N)C(=O)N[C@@H](CO)C(=O)N[C@@H](CCC(N)=O)C(=O)NCCCCCC(=O)O` [Compound 15, AEAMSQAhx] (H-AEAMSQ[Ahx]-OH), the IC50 was no less than 500 µM. For AEAMSQVAN [Compound 10, AEAMSQVAN], the IC50 was no less than 500 µM. In the case of `CSCC[C@H](NC(=O)CCCCCCCNC(=O)CCCCCCCN)C(=O)NCCCCCCCC(=O)O` [Compound 30, N-AocAocMAoc], the IC50 is reported as no less than 500 µM. For `CC(C)[C@H](N)C(=O)N[C@H](C(=O)N[C@@H](CC(N)=O)C(=O)O)[C@@H](C)O` [Compound 21, VTN] (H-Val-Thr-Asn-OH), the IC50 was no less than 500 µM. Compound AEAMSQ [Compound 17, AEAMSQ] has an IC50 of no less than 500 µM.

Same assay, conditions: same way as in 2) in Example 1; read-out: IC50
AEAMSQVTN [Compound 6, AEAMSQVTN] gave an IC50 of 6 µM. For AEAMSQVTL [Compound 11, AEAMSQVTL], the IC50 was 53 µM. “AEAMSQVTNSATIM [Compound 2, AEAMSQVTNSATIM]” showed an IC50 of 22 µM. `CCCCCCCCCCCCCC(=O)N[C@@H](C)C(=O)N[C@@H](CCC(=O)O)C(=O)N[C@@H](C)C(=O)N[C@@H](CCSC)C(=O)N[C@@H](CO)C(=O)N[C@@H](CCC(N)=O)C(=O)O` [Compound 18, N-Myr-AEAMSQ] (Myristoyl-AEAMSQ-OH) gave an IC50 of 79 µM. `CCCCCCCCCCCCCC(=O)N[C@@H](C)C(=O)N[C@@H](CCC(=O)O)C(=O)N[C@@H](C)C(=O)N[C@@H](CCSC)C(=O)O` [Compound 20, N-Myr-AEAM] (Myristoyl-AEAM-OH) gave an IC50 of 16 µM.

Same assay, conditions: substrate 0.57-2.0 mM, pH 5.5, 37°C, Lineweaver-Burk plots (Fig. 1)
With `CC[C@H](C)[C@H](NC(=O)[C@@H]1CCCN1C(=O)[C@H](Cc1ccc(O)cc1)NC(=O)[C@H](CC(N)=O)NC(=O)[C@H](CCC(N)=O)NC(=O)[C@H](CO)NC(=O)CCC(=O)O)C(=O)N[C@H](C(=O)N[C@@H](CCC(N)=O)C(=O)O)C(C)C` [Suc-Ser-Gln-Asn-Tyr-Pro-Ile-Val-Gln, reference compound] (Suc-SQNYPIVQ-OH) the Km was 2200 µM.

Biological target: T1, HIV-1 protease
Assay: as above
Type: biochemical
Parameters: partial pol protein containing HIV-1 protease; β-galactosidase (fusion partner in the expressed precursor); made in house; host or cells: E. coli K12 (UT481)
Settings: same way as in 2) in Example 1
Description: as §1
Synthesized peptide composed of Suc-Ser-Gln-Asn-Tyr-Pro-Ile-Val-Gln as a substrate was dissolved into 50 mM MES-NaOH buffer solution (pH 5.5) so that its concentration in enzyme reaction would be 0.57 mM, 1.25 mM, 1.43 mM, 1.67 mM and 2.0 mM. […] Thereafter, enzyme activity thereof was measured by means of a PICO-TAG amino acid composition analyzing device. The initial velocities at the respective concentrations of the substrate were calculated and then analysis was performed based on by Lineweaver-Burk plots. […]
as §2
For `CCCCCCCCCCCCCC(=O)N[C@@H](CCSC)C(=O)O` [Compound 23, N-Myr-M], the IC50 was 44 µM. Work on `CCCCCCCCCCCC(=O)N[C@@H](CCSC)C(=O)O` [Compound 25, N-Lau-M] yielded an IC50 of 124 µM.
